{"source": "patent US20130237610A1", "about": "“DYNAMIC BALANCING OF AUTONOMIC NERVOUS SYSTEM THROUGH VITAMIN MK-7” (priority 2010, published 2013)", "key": {"healthy male volunteers": {"tested_on": "healthy male volunteers", "assay": "ANS activity (sympathovagal balance) measured by ANSiscope in healthy male volunteers", "assay_type": "in vivo, human", "conditions": "for general and systemic examination, Blood Pressure (Supine), pulse: 350 μg per day, 2 months; for percentage of ANS dysfunction / stage of ANS dysfunction: 1 cap per day of 350 μg, end of 2 months", "experimental": "[…] ANS activity was measured and printed out in a graph form by the ANSiscope™, manufactured by DyAnsys a US based company. The instrument is US FDA approved patented instrument. This instrument assessed the autonomic function by calculating 500 Heart beats/RR intervals. After assessing this, the instrument will analyze the level of the dysfunction and the degree of autonomic neuropathy. For this reason they have classified autonomic dysfunction in 5 stages, namely Healthy (H), Early (E), Late (L), Advanced (A) and Most Advanced (MA). The percentage calculation values demarcating groups are: −11.5% to 11.5%: healthy group, 13.5% to 20%: early group, 23% to 50.99%: late group, 51% to 100%: advanced group and above falls in Most advance group.\nThe study parameters assessed were sympathetic and parasympathetic tone, change in blood pressure (orthostatic intolerance, measured at right. brachial artery), pulse (assessed by measuring the pulse at right. radial artery) and physical and general examination. Study was performed on subjects in relaxed supine position without any external stimulation, usually 2 hrs. after breakfast during morning time for 2 consecutive months.\nSubjects who have Blood pressure beyond the range of 140/90 (supine) and 100/70 (standing) mm Hg, and Sugar Fasting more than 250 mg % and with any major illness are ruled out of study. All subjects were checked for baseline parameters on 0 day. Vitamin K2-7 (MK-7) in dose of 350 μg was administered on 3rd day after the baseline reading. MK-7 was continued for 2 months. Readings were taken on 3rd day, 15th day, 28st day, 50th day, 56th day and at 62nd day."}, "rats": {"tested_on": "rats", "assay": "Chronic toxicity study, ECG of rats", "assay_type": "in vivo", "conditions": "rat ECG", "source_text": "In another study on animal model during chronic toxicity study, it was discovered that MK-7 produces significant changes in ECG of rats. This discovery during basic pharmacology studies on MK-7 was investigated for its effect on Cardio Vascular System. It is during this study the investigator discovered the following findings (FIGS. 5 and 6).\nThe main parameter which was observed during chronic toxicity studies in rat ECG was the prolongation of QT interval."}, "ISO injected rats": {"tested_on": "ISO injected rats", "assay": "Isoproterenol (ISO) induced cardiac injury model", "assay_type": "in vivo, rat", "experimental": "During the yet another study conducted to assess the cardioprotective effect of vitamin K2-7, inventors of the current invention observe that the vitamin K2-7 improves the cardiac output parameters. Isoproterenol (ISO) induced cardiac injury model was selected for the study. It was observed that ISO induced cardiac output decrease in all the dose levels i.e. at 90 μg/kg, 450 μg/kg and 900 μg/kg. […] This effects was non-linear and was enhanced in 900 μg/kg dose.\nEffect of vitamin K2-7 on the left cardiac work has been evaluated in the same study. It was observed that administration of ISO leads to marked decrease in left cardiac work when measured 48 h after ISO injection in comparison to pre ISO level i.e. control.\nIn the same study it was also observed that vitamin K2-7 enhances the High Density Lipoprotein (HDL) level in all the dose levels studied i.e. at 90 μg/kg, 450 μg/kg and 900 μg/kg. Isoproterenol (ISO) induced cardiac injury model was selected for the study. […] HDL cholesterol level for the treated group increased in comparison to the ISO controlled group. The observed increase was greater with respect to the dose level increased."}}}
{"smiles": "CC(C)=CCC/C(C)=C/CC/C(C)=C/CC/C(C)=C/CC/C(C)=C/CC/C(C)=C/CC/C(C)=C/CC1=C(C)C(=O)c2ccccc2C1=O", "note": "[MK-7]", "values": [{"measurement": "other parameters (blood pressure, pulse, physical and general examination)", "setting": "healthy male volunteers; 350 μg for 2 months", "value": "remained unaffected"}, {"measurement": "general and systemic examination, Blood Pressure (Supine), pulse", "setting": "healthy male volunteers; person one", "value": "in normal range without any change from base line records"}, {"measurement": "general and systemic examination, Blood Pressure (Supine), pulse", "setting": "healthy male volunteers; person two", "value": "in normal range without any change from base line records"}, {"measurement": "parasympathetic activity", "setting": "healthy male volunteers; 350 μg, after 2 months of therapy", "value": "little effect"}, {"measurement": "sympathetic activity", "setting": "healthy male volunteers; 350 μg, after 2 months of therapy, initially elevated", "value": "marked normalization"}, {"measurement": "percentage of ANS dysfunction", "setting": "healthy male volunteers; person one, baseline 61%", "value": 31, "unit": "%"}, {"measurement": "stage of ANS dysfunction", "setting": "healthy male volunteers; person one, baseline 'Advance stage'", "value": "Early (13.5% to 20%: early group)"}, {"measurement": "percentage of ANS dysfunction", "setting": "healthy male volunteers; person two, baseline 25%", "value": 21, "unit": "%"}, {"measurement": "stage of ANS dysfunction", "setting": "healthy male volunteers; person two, baseline 'Late stage'", "value": "Early (13.5% to 20%: early group)"}, {"measurement": "PR interval", "setting": "rats", "value": "not affected to significant extent"}, {"measurement": "QTc change", "setting": "rats", "value": "moderate non-significant shortening"}, {"measurement": "heart rate", "setting": "rats", "value": "no increase"}, {"measurement": "prolongation of QTc", "setting": "rats", "value": "did not cause any prolongation"}, {"measurement": "QT interval", "setting": "rats; 100, 500, 1000 μg/kg", "value": "remained unaffected"}, {"measurement": "QRS interval", "setting": "rats; 500, 1000 μg/kg", "value": "significant shortening"}, {"measurement": "RR interval", "setting": "rats; 500, 1000 μg/kg", "value": "significant prolongation"}, {"measurement": "ISO induced cardiac output decrease", "setting": "ISO injected rats; 90 μg/kg and 450 μg/kg", "value": "reversed"}, {"measurement": "ISO induced cardiac output decrease", "setting": "ISO injected rats; 900 μg/kg", "value": "enhanced"}, {"measurement": "ISO induced left cardiac work decrease, reversal", "setting": "ISO injected rats; 900 μg/kg vs other treatment groups", "value": "higher than other treatment groups"}, {"measurement": "ISO induced left cardiac work decrease", "setting": "ISO injected rats; 90, 450 and 900 μg/kg, 48 h after ISO injection, vs ISO control", "value": "reversed to a great extent"}, {"measurement": "HDL cholesterol level", "setting": "ISO injected rats; 90, 450 and 900 μg/kg, vs ISO control group", "value": "increased"}, {"measurement": "blood sugar", "setting": "ISO injected rats; within 12 days, 90, 450 and 900 μg/kg", "value": "reducing blood sugar"}]}
